What was measured:
[1] = molecular target: T1, GST tagged LXRbeta LBD (ligand binding domain) (Homo sapiens, UniProt P55055); experiment: LanthaScreen TR-FRET Liver X Receptor Coactivator Assay, LXR beta-LBD; assay type: biochemical; conditions: relative to reference T0901317; for EC50: Inflection Point (potency), co-activator recruitment, read-out: LXR beta IP; for LXR beta act @ max dose (%) / Emax: activity at max dose (efficacy); for Emax: read-out: LXR beta act @ max dose (%)
T1 construct: purchased Invitrogen pv4658.pps
T1 sequence (P55055 222-460 limits assumed): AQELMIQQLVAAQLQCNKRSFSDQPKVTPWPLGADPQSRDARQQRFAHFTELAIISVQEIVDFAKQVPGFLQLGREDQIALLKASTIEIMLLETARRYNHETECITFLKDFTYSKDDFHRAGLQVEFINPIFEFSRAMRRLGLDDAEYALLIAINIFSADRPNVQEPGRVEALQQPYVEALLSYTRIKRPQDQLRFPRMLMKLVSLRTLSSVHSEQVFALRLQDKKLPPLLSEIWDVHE
Procedure, shortened: (§1)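 Compound-induced coactivator recruitment measured by TR-FRET between a terbium anti-GST antibody bound to the GST-LBD (LXRα or LXRβ, human) and a fluorescein coactivator peptide, after incubation at room temperature. Potency (inflection point) and efficacy (Emax) referenced to T0901317.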

[2] = molecular target: T2, GST tagged LXRalpha LBD (ligand binding domain) (Homo sapiens, UniProt Q13133); experiment: LanthaScreen TR-FRET Liver X Receptor Coactivator Assay, LXR alpha-LBD; assay type: biochemical; conditions: relative to reference T0901317; for EC50: read-out: LXR alpha IP; for LXR alpha act @ max dose (%) / Emax: activity at max dose (efficacy); for Emax: read-out: LXR alpha act @ max dose (%)
T2 construct: purchased Invitrogen pv4655
T2 sequence (Q13133 209-447 limits assumed): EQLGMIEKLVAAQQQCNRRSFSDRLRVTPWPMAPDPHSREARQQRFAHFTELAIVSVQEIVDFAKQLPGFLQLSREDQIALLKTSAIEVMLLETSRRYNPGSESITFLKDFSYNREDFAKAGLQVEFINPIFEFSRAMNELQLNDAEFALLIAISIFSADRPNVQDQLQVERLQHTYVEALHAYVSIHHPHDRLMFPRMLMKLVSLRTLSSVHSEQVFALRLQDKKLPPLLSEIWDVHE
Procedure, shortened: as §1

[3] = Inflection Point (potency), co-activator recruitment

Row | Compound | EC50 [1] | LXR beta act @ max dose (%) [1] | EC50 [2, 3] | LXR alpha act @ max dose (%) [2] | Emax [1] | Emax [2] | LXR alpha IP (nM) [2, 3]
1 | CC(C)CC(O)(C(=O)N1CCC(C2CCN(c3ccc(C(=O)N(C)C)c(Cl)c3)CC2)CC1)C(F)(F)F (centres unmarked) [Example A-90, 2-chloro-4-{1′-[2-hydroxy-4-methyl-2-(trifluoromethyl)pentanoyl]-4,4′-bipiperidin-1-yl}-N,N-dimethylbenzamide] | 108 nM | 70% | 686 nM | 45% | – | – | –
2 | CN(C)C(=O)c1ccc(N2CCC(C3CCN(C(=O)C(O)(c4ccccc4)C4CCC4)CC3)CC2)cc1Cl (centres unmarked) [Example A-51, 2-chloro-4-{1′-[cyclobutyl(hydroxy)phenylacetyl]-4,4′-bipiperidin-1-yl}-N,N-dimethylbenzamide] | 128 nM | – | 1590 nM | – | 109% | 33% | –
3 | CCN(C)C(=O)c1ccc(N2CCC(C3CCN(C(=O)[C@](O)(c4ccccc4)C(F)(F)F)CC3)CC2)cc1Cl [Example E-60, 2-chloro-N-ethyl-N-methyl-4-{1′-[(2R)-3,3,3-trifluoro-2-hydroxy-2-phenylpropanoyl]-4,4′-bipiperidin-1-yl}benzamide] | 100 nM | – | 1850 nM | – | 114% | 34% | –
4 | CCC1CCCN1C(=O)c1ccc(N2CCC(C3CCN(C(=O)[C@](O)(c4ccccc4)C(F)(F)F)CC3)CC2)cc1Cl (stereo partly drawn) [Example E-30, (2R)-3-(1′-{3-chloro-4-[(2-ethylpyrrolidin-1-yl)carbonyl]phenyl}-4,4′-bipiperidin-1-yl)-1,1,1-trifluoro-3-oxo-2-phenylpropan-2-ol] | 143 nM | – | 1520 nM | – | 74% | 15% | –
5 | CC1CCC(C)N1C(=O)c1ccc(N2CCC(C3CCN(C(=O)[C@](O)(c4ccccc4)C(F)(F)F)CC3)CC2)cc1Cl (stereo partly drawn) [Example E-27, (2R)-3-(1′-{3-chloro-4-[(2,5-dimethylpyrrolidin-1-yl)carbonyl]phenyl}-4,4′-bipiperidin-1-yl)-1,1,1-trifluoro-3-oxo-2-phenylpropan-2-ol] | 53 nM | – | – | – | 58% | 0% | NO IP
6 | O=C1CCN(C(=O)c2ccc(N3CCC(C4CCN(C(=O)[C@](O)(c5ccccc5)C(F)(F)F)CC4)CC3)cc2Cl)C1 [Example E-31] | 182 nM | – | 2990 nM | – | 79% | 28% | –
7 | CC(C)N(C(=O)c1ccc(N2CCC(C3CCN(C(=O)C(O)(C(C)C)C(F)(F)F)CC3)CC2)cc1Cl)C(C)C (centres unmarked) [Example E-11, 2-chloro-4-{1′-[2-hydroxy-3-methyl-2-(trifluoromethyl)butanoyl]-4,4′-bipiperidin-1-yl}-N,N-bis(1-methylethyl)benzamide] | 156 nM | – | 1070 nM | – | 33% | 1% | –
8 | CCN(CC)C(=O)c1ccc(N2CCC(C3CCN(C(=O)C(O)(C(C)C)C(F)(F)F)CC3)CC2)cc1Cl (centres unmarked) [Example E-9, 2-chloro-N,N-diethyl-4-{1′-[2-hydroxy-3-methyl-2-(trifluoromethyl)butanoyl]-4,4′-bipiperidin-1-yl}benzamide] | 30 nM | – | 114 nM | – | 96% | 49% | –
9 | CN(C)C(=O)c1ccc(N2CCC(C3CCN(C(=O)C(O)(C(C)(C)C)C(F)(F)F)CC3)CC2)cc1Cl (single isomer, unassigned) [Example A-7, 2-Chloro-4-(1′-(2-hydroxy-3,3-dimethyl-2-(trifluoromethyl)butanoyl)-[4,4′-bipiperidin]-1-yl)-N,N-dimethylbenzamide] | 62 nM | 93% | 1400 nM | 56% | – | – | –
10 | CN(Cc1ccno1)C(=O)c1ccc(N2CCC(C3CCN(C(=O)[C@](O)(c4ccccc4)C(F)(F)F)CC3)CC2)cc1Cl [Example E-50, 2-chloro-N-(isoxazol-5-ylmethyl)-N-methyl-4-{1′-[(2R)-3,3,3-trifluoro-2-hydroxy-2-phenylpropanoyl]-4,4′-bipiperidin-1-yl}benzamide] | 349 nM | – | 1400 nM | – | 74% | 31% | –

More lines, now with the values ahead:

Row | EC50 [1] | LXR beta act @ max dose (%) [1] | EC50 [2, 3] | LXR alpha act @ max dose (%) [2] | Emax [1] | Emax [2] | LXR alpha IP (nM) [2, 3] | Compound
11 | 79 nM | – | 2980 nM | – | 92% | 23% | – | CN(C)C(=O)c1ccc(N2CCC(C3CCN(C(=O)c4c(F)cccc4F)CC3)CC2)cc1Cl [Example A-23, 2-chloro-4-{1′-[(2,6-difluorophenyl)carbonyl]-4,4′-bipiperidin-1-yl}-N,N-dimethylbenzamide]
12 | 63 nM | – | 3550 nM | – | 103% | 36% | – | CC(C)[C@](O)(C(=O)N1CCC(C2CCN(c3ccc(C(=O)N(C)C)c(Cl)c3)CC2)CC1)C(F)(F)F (single isomer, unassigned) [Example A-3]
13 | 7 nM | – | 148 nM | – | 107% | 58% | – | CN(C)C(=O)c1ccc(N2CCC(C3CCN(C(=O)C4(c5c(F)cccc5Cl)CCCC4)CC3)CC2)cc1Cl [Example A-82, 2-chloro-4-(1′-{[1-(2-chloro-6-fluorophenyl)cyclopentyl]carbonyl}-4,4′-bipiperidin-1-yl)-N,N-dimethylbenzamide]
14 | 237 nM | – | 857 nM | – | 36% | 29% | – | COC(=O)c1ccc(N2CCC(C3CCN(C(=O)OC(C)(C)C)CC3)CC2)nc1Cl [Example E-1, tert-butyl 1′-[6-chloro-5-(methoxycarbonyl)pyridin-2-yl]-4,4′-bipiperidine-1-carboxylate]
15 | 143 nM | – | 1980 nM | – | 95% | 22% | – | CN(C)C(=O)c1ccc(N2CCC(C3CCN(C(=O)C(C)(C)c4ccc(Cl)cc4)CC3)CC2)cc1Cl [Example A-44, 2-chloro-4-{1′-[2-(4-chlorophenyl)-2-methylpropanoyl]-4,4′-bipiperidin-1-yl}-N,N-dimethylbenzamide]
16 | 71 nM | – | 885 nM | – | 95% | 38% | – | CN(C)C(=O)c1ccc(N2CCC(C3CCN(C(=O)c4c(F)cccc4F)CC3)CC2)nc1Cl [Example B-8, 2-chloro-6-{1′-[(2,6-difluorophenyl)carbonyl]-4,4′-bipiperidin-1-yl}-N,N-dimethylpyridine-3-carboxamide]
17 | 153 nM | – | 58 nM | – | 25% | 26% | – | COC(=O)c1ccc(N2CCC(C3CCN(C(=O)c4c(F)cccc4F)CC3)CC2)cc1Cl [Example E-2, methyl 2-chloro-4-{1′-[(2,6-difluorophenyl)carbonyl]-4,4′-bipiperidin-1-yl}benzoate]
18 | 26 nM | – | 493 nM | – | 123% | 48% | – | CC(C)C(O)(C(=O)N1CCC(C2CCN(c3ccc(C(=O)N(C)C)c(Cl)n3)CC2)CC1)C(F)(F)F (centres unmarked) [Example B-4, 2-chloro-6-{1′-[2-hydroxy-3-methyl-2-(trifluoromethyl)butanoyl]-4,4′-bipiperidin-1-yl}-N,N-dimethylpyridine-3-carboxamide]
19 | 36 nM | – | 1530 nM | – | 114% | 38% | – | CN(C)C(=O)c1ccc(N2CCC(C3CCN(C(=O)C4(c5ccccc5)CCC4)CC3)CC2)cc1Cl [Example A-14, 2-chloro-N,N-dimethyl-4-{1′-[(1-phenylcyclobutyl)carbonyl]-4,4′-bipiperidin-1-yl}benzamide]
20 | 161 nM | – | 1370 nM | – | 106% | 55% | – | CN(C)C(=O)c1ccc(N2CCC(C3CCN(C(=O)c4c(Cl)cccc4Cl)CC3)CC2)nc1Cl [Example B-10, 2-chloro-6-{1′-[(2,6-dichlorophenyl)carbonyl]-4,4′-bipiperidin-1-yl}-N,N-dimethylpyridine-3-carboxamide]
21 | 56 nM | – | 888 nM | – | 115% | 53% | – | CCC(F)(C(=O)N1CCC(C2CCN(c3ccc(C(=O)N(C)C)c(Cl)c3)CC2)CC1)c1ccccc1 (centres unmarked) [Example A-61, 2-chloro-4-[1′-(2-fluoro-2-phenylbutanoyl)-4,4′-bipiperidin-1-yl]-N,N-dimethylbenzamide]
22 | 91 nM | – | 2630 nM | – | 106% | 54% | – | CC(=O)Oc1ccc(C(C)(C)C(=O)N2CCC(C3CCN(c4ccc(C(=O)N(C)C)c(Cl)c4)CC3)CC2)cc1 [Example A-59, 4-(2-{1′-[3-chloro-4-(dimethylcarbamoyl)phenyl]-4,4′-bipiperidin-1-yl}-1,1-dimethyl-2-oxoethyl)phenyl acetate]
23 | 128 nM | – | 1220 nM | – | 84% | 58% | – | O=C(c1c(F)cccc1F)N1CCC(C2CCN(c3ccc(C(=O)N4CCCC4CO)c(Cl)c3)CC2)CC1 (centres unmarked) [Example E-12, {1-[(2-chloro-4-{1′-[(2,6-difluorophenyl)carbonyl]-4,4′-bipiperidin-1-yl}phenyl)carbonyl]pyrrolidin-2-yl}methanol]
